Assay results from patent US7829524B2, “Antimicrobial peptides” (Novozymes Adenium Biotech A/S, priority 2003, dated 2010).
Like-named read-outs stand apart in the source and are kept apart here.

Test system: E. coli TOP10
Type: cell-based
Settings: end point OD450, 14 hours
Experimental: A range of synthetic antimicrobial polypeptides were expressed in E. coli TOP10 (Invitrogen) using arabinose as inducer, as disclosed in Example 1 of International patent application WO 00/73433 (with minor modifications). […] Briefly, fresh overnight cultures grown in RM medium containing 0.2% glucose and ampicillin (100 μg/ml) were diluted 300-fold into 150 microliter of RM containing 0.2% glycerol and ampicillin (100 μg/ml) and different concentrations of arabinose (0, 0.01% or 0.1%) in a microtiter plate and incubated at 37 degrees Celsius with vigorous shaking. The growth curve was monitored by measuring OD450 using a Bioscreen C Microbiology reader (Thermo Electron Corporation) at intervals of 30 minutes for 14 hours (see Invitrogen protocol of the pBAD/gill A, B and C vectors catalogue nos. V450-01 for buffer and media composition). The percentage of growth inhibition was calculated as the end point OD measurement of each sample divided by the end point OD measurement obtained from cells containing the control vector and multiplied by 100. The formula is the following: [formula] where “blank OD” corresponds to the OD of an empty well.

“GLFKRLRKKIGKKLKKFGQKIKPLRKLVP (Synthetic antimicrobial peptide) [SEQ ID NO: 18]” was tested, and the “Growth inhibition using 0.1% arabinose (%)” value (Table 5) was 94%.
“GLFRRFGKKIGKKIIKKIGQKIKPIHKLVP (GLFRRFGKKIGKKLKKIGQKIKPIHKLVP; Synthetic antimicrobial peptide) [SEQ ID NO: 43]” was tested, and the “Growth inhibition using 0.1% arabinose (%)” value (Table 5) was 76%.
“GLFRRFGKKIGKKLKKIGQVIKALRILVP (Synthetic antimicrobial peptide) [SEQ ID NO: 39]” was tested, and the “Growth inhibition using 0.1% arabinose (%)” value (Table 5) was 95%.
For “GLFRRFRRKIGKKLKKFGQKIKPLRKLVP (Synthetic antimicrobial peptide) [SEQ ID NO: 20]”, the “Growth inhibition using 0.1% arabinose (%)” value (Table 5) was 97%.
For “GLFRRFWKKIGRKLKKIGQKIKPLQILVP (Synthetic antimicrobial peptide) [SEQ ID NO: 47]”, the “Growth inhibition using 0.1% arabinose (%)” value (Table 5) was 79%.
With “GLFRRIRRKIGKKFKKFGQVIKPLRKLVP (Synthetic antimicrobial peptide) [SEQ ID NO: 52]” the “Growth inhibition using 0.1% arabinose (%)” value (Table 5) was 95%.
For “GLFRRLGKKIGKKIKKFGQVIKHIRILVP (GLFRRLGKKIGKKLKKFGQVIKHIRILVP; Synthetic antimicrobial peptide) [SEQ ID NO: 34]”, the “Growth inhibition using 0.1% arabinose (%)” value (Table 5) was 92%.
With “GLFRRLGRKIGKKLKKIGQVIKHIRILVP (Synthetic antimicrobial peptide) [SEQ ID NO: 36]” the “Growth inhibition using 0.1% arabinose (%)” value (Table 5) was 95%.
For “GLFRRLKRKIGKKLKKIAR (Synthetic antimicrobial peptide) [SEQ ID NO: 65]”, the “Growth inhibition using 0.01% arabinose (%)” value (Table 6) was 91% and the “Growth inhibition using 0.1% arabinose (%)” value (Table 6) was 99%.
“GLFRRLKRKIGRKFKKIAR (Synthetic antimicrobial peptide) [SEQ ID NO: 60]” was tested, and the “Growth inhibition using 0.01% arabinose (%)” value (Table 6) was 85% and the “Growth inhibition using 0.1% arabinose (%)” value (Table 6) was 99%.
With “GLFRRLRGKIGKKLKKIGQKIKAIRILVP (Synthetic antimicrobial peptide) [SEQ ID NO: 33]” the “Growth inhibition using 0.1% arabinose (%)” value (Table 5) was 91%.
For “GLFRRLRKKIGKKFKKIAR (Synthetic antimicrobial peptide) [SEQ ID NO: 69]”, the “Growth inhibition using 0.01% arabinose (%)” value (Table 6) was 86% and the “Growth inhibition using 0.1% arabinose (%)” value (Table 6) was 99%.
With “GLFRRLRKKIGKKLKKIAR (Synthetic antimicrobial peptide) [SEQ ID NO: 64]” the “Growth inhibition using 0.01% arabinose (%)” value (Table 6) was 92% and the “Growth inhibition using 0.1% arabinose (%)” value (Table 6) was 99%.
In the case of “GLFRRLRKKIGKKLKKIGQLIKAIRILVP (Synthetic antimicrobial peptide) [SEQ ID NO: 23]”, the “Growth inhibition using 0.1% arabinose (%)” value (Table 5) is reported as 97%.
For “GLFRRLRRKIGKKFKKFGQKIKPLRKLVP (Synthetic antimicrobial peptide) [SEQ ID NO: 46]”, the “Growth inhibition using 0.1% arabinose (%)” value (Table 5) was 96%.
In the case of “GLLKRFRGKIGKKLKKYGQLIKAIRILVP (Synthetic antimicrobial peptide) [SEQ ID NO: 22]”, the “Growth inhibition using 0.1% arabinose (%)” value (Table 5) is reported as 90%.
“GLLKRLGRKIGKKFKKIAR (Synthetic antimicrobial peptide) [SEQ ID NO: 61]” was tested, and the “Growth inhibition using 0.01% arabinose (%)” value (Table 6) was 89% and the “Growth inhibition using 0.1% arabinose (%)” value (Table 6) was 98%.
“GLLKRLGRKIGKKLKKFGQKIKAIRKLVP (Synthetic antimicrobial peptide) [SEQ ID NO: 8]” was tested, and the “Growth inhibition using 0.01% arabinose (%)” value (Table 4) was 97% and the “Growth inhibition using 0.1% arabinose (%)” value (Table 4) was 100%.
“GLLKRLRKKIGKKLKKIGPKIKHIRKLVP (Synthetic antimicrobial peptide) [SEQ ID NO: 10]” was tested, and the “Growth inhibition using 0.01% arabinose (%)” value (Table 4) was 93% and the “Growth inhibition using 0.1% arabinose (%)” value (Table 4) was 100%.
With “GLLKRLRKKIGKKLKKIGQKIKPIRKLVP (Synthetic antimicrobial peptide) [SEQ ID NO: 25]” the “Growth inhibition using 0.1% arabinose (%)” value (Table 5) was 94%.
“GLLKRLRKKIGKKLKKIGQMIKHIRILVP (Synthetic antimicrobial peptide) [SEQ ID NO: 44]” was tested, and the “Growth inhibition using 0.1% arabinose (%)” value (Table 5) was 93%.
For “GLLRRFGKKIGKKFKKYGQKIKNLRILVP (Synthetic antimicrobial peptide) [SEQ ID NO: 24]”, the “Growth inhibition using 0.1% arabinose (%)” value (Table 5) was 92%.
“GLLRRFGRKIGKKFKKFGPKIKHLRKLVP (Synthetic antimicrobial peptide) [SEQ ID NO: 26]” was tested, and the “Growth inhibition using 0.1% arabinose (%)” value (Table 5) was 92%.
In the case of “GLLRRFGRKIGKKFKKFGPKIKILRKLVP (GLLRRFGRKIGKKFKKFGPKIKHLRKLVP; Synthetic antimicrobial peptide) [SEQ ID NO: 19]”, the “Growth inhibition using 0.1% arabinose (%)” value (Table 5) is reported as 91%.
In the case of “GLLRRFRBEIGKKLKKYGQKIKHLRKLVP (GLLRRFREKIGKKLKKYGQKIKHLRKLVP; Synthetic antimicrobial peptide) [SEQ ID NO: 45]”, the “Growth inhibition using 0.1% arabinose (%)” value (Table 5) is reported as 79%.
With “GLLRRFRKKIGEKFKKFGQKIKNIRILVP (Synthetic antimicrobial peptide) [SEQ ID NO: 55]” the “Growth inhibition using 0.1% arabinose (%)” value (Table 5) was 79%.
“GLLRRFRKKIGGKLKKYGQIIKHLRILVP (Synthetic antimicrobial peptide) [SEQ ID NO: 5]” was tested, and the “Growth inhibition using 0.01% arabinose (%)” value (Table 4) was 94% and the “Growth inhibition using 0.1% arabinose (%)” value (Table 4) was 100%.
“GLLRRFRKKIGKKLKKITR (Synthetic antimicrobial peptide) [SEQ ID NO: 67]” was tested, and the “Growth inhibition using 0.01% arabinose (%)” value (Table 6) was 90% and the “Growth inhibition using 0.1% arabinose (%)” value (Table 6) was 100%.
For “GLLRRFRKKIGKKLKKYGQKIKHLRILVP (Synthetic antimicrobial peptide) [SEQ ID NO: 57]”, the “Growth inhibition using 0.1% arabinose (%)” value (Table 5) was 95%.
In the case of “GLLRRFRNKIGKKLKKIGQKIKPIRKLVP (Synthetic antimicrobial peptide) [SEQ ID NO: 50]”, the “Growth inhibition using 0.1% arabinose (%)” value (Table 5) is reported as 92%.
With “GLLRRFRRKIGRKLKKYGLMIKPLRKLVP (Synthetic antimicrobial peptide) [SEQ ID NO: 21]” the “Growth inhibition using 0.1% arabinose (%)” value (Table 5) was 94%.
“GLLRRFWMKIGGKLKKFGQMIKHLRKLVP (Synthetic antimicrobial peptide) [SEQ ID NO: 11]” was tested, and the “Growth inhibition using 0.01% arabinose (%)” value (Table 4) was 92% and the “Growth inhibition using 0.1% arabinose (%)” value (Table 4) was 99%.
“GLLRRIIGKKIGKKFKKCGQVIKAIRILVP (GLLRRLGKKIGKKFKKCGQVIKAIRILVP; Synthetic antimicrobial peptide) [SEQ ID NO: 54]” was tested, and the “Growth inhibition using 0.1% arabinose (%)” value (Table 5) was 89%.
In the case of “GLLRRLGKKIGKKFKKFGQVIKALRILVP (Synthetic antimicrobial peptide) [SEQ ID NO: 35]”, the “Growth inhibition using 0.1% arabinose (%)” value (Table 5) is reported as 95%.
With “GLLRRLGRKIGKKLKKIGQKIKAIRILVP (Synthetic antimicrobial peptide) [SEQ ID NO: 49]” the “Growth inhibition using 0.1% arabinose (%)” value (Table 5) was 96%.
With “GLLRRLRGKIGKKLKKIGQKIKAIRKLVP (Synthetic antimicrobial peptide) [SEQ ID NO: 4]” the “Growth inhibition using 0.01% arabinose (%)” value (Table 4) was 89% and the “Growth inhibition using 0.1% arabinose (%)” value (Table 4) was 100%.
“GLLRRLRKKIEKKLKKYGPKIKALRKLVP (Synthetic antimicrobial peptide) [SEQ ID NO: 37]” was tested, and the “Growth inhibition using 0.1% arabinose (%)” value (Table 5) was 94%.
“GLLRRLRKKIGKKLKFFGQKIKHIRILVP (GLLRRLRKKIGKKLKKFGQKIKHIRILVP; Synthetic antimicrobial peptide) [SEQ ID NO: 7]” was tested, and the “Growth inhibition using 0.01% arabinose (%)” value (Table 4) was 93% and the “Growth inhibition using 0.1% arabinose (%)” value (Table 4) was 100%.
“GLLRRLRKKIGKKLKKIGQKIKPIRKLVP (Synthetic antimicrobial peptide) [SEQ ID NO: 56]” was tested, and the “Growth inhibition using 0.1% arabinose (%)” value (Table 5) was 94%.
With “GLLRRLRKKIGKKLKKITR (Synthetic antimicrobial peptide) [SEQ ID NO: 63]” the “Growth inhibition using 0.01% arabinose (%)” value (Table 6) was 95% and the “Growth inhibition using 0.1% arabinose (%)” value (Table 6) was 99%.
With “GLLRRLRKKIGRKFKKIAR (Synthetic antimicrobial peptide) [SEQ ID NO: 68]” the “Growth inhibition using 0.01% arabinose (%)” value (Table 6) was 91% and the “Growth inhibition using 0.1% arabinose (%)” value (Table 6) was 100%.
“GLLRRLRNKIRKKLKKFGQKIKAIRILVP (Synthetic antimicrobial peptide) [SEQ ID NO: 16]” was tested, and the “Growth inhibition using 0.01% arabinose (%)” value (Table 4) was 96% and the “Growth inhibition using 0.1% arabinose (%)” value (Table 4) was 100%.
With “GLLRRLRRKIGGKLKKFGQKIKPLRKLVP (Synthetic antimicrobial peptide) [SEQ ID NO: 6]” the “Growth inhibition using 0.01% arabinose (%)” value (Table 4) was 92% and the “Growth inhibition using 0.1% arabinose (%)” value (Table 4) was 100%.
For “GLLRRLRRKIGKKFKKIGQVIKHLRKLVP (Synthetic antimicrobial peptide) [SEQ ID NO: 32]”, the “Growth inhibition using 0.1% arabinose (%)” value (Table 5) was 97%.
In the case of “GLLRRLRRKIGKKLKKFGQKIKHIRILVP (Synthetic antimicrobial peptide) [SEQ ID NO: 15]”, the “Growth inhibition using 0.01% arabinose (%)” value (Table 4) is reported as 96% and the “Growth inhibition using 0.1% arabinose (%)” value (Table 4) is reported as 100%.
With “GLLRRLWKKIGRKFKKYGQVIKHIRKLVP (Synthetic antimicrobial peptide) [SEQ ID NO: 48]” the “Growth inhibition using 0.1% arabinose (%)” value (Table 5) was 97%.
In the case of “GLVRRFRRKIGKKLKKIGQIIKAIRKLVP (Synthetic antimicrobial peptide) [SEQ ID NO: 31]”, the “Growth inhibition using 0.1% arabinose (%)” value (Table 5) is reported as 96%.
For “GRFKRFWKKIGRKFKKIGQMLKPIRILVP (Synthetic antimicrobial peptide) [SEQ ID NO: 9]”, the “Growth inhibition using 0.01% arabinose (%)” value (Table 4) was 96% and the “Growth inhibition using 0.1% arabinose (%)” value (Table 4) was 100%.
In the case of “GRFKRLRKKIGKKFKKIGQKIKDIRKLIVP (GRFKRLRKKIGKKFKKIGQKIKDIRKLVP; Synthetic antimicrobial peptide) [SEQ ID NO: 51]”, the “Growth inhibition using 0.1% arabinose (%)” value (Table 5) is reported as 97%.
In the case of “GRFRRFRKKIGGKLKKIGQVIKDIRILVP (Synthetic antimicrobial peptide) [SEQ ID NO: 28]”, the “Growth inhibition using 0.1% arabinose (%)” value (Table 5) is reported as 95%.
With “GRFRRFRKKIGKKFKKFGQMIKALRILVP (Synthetic antimicrobial peptide) [SEQ ID NO: 29]” the “Growth inhibition using 0.1% arabinose (%)” value (Table 5) was 95%.
